Source: paper PMC6904773, “Structural and functional characterization of buffalo oviduct-specific glycoprotein (OVGP1) expressed during estrous cycle” (Bioscience Reports, 2019)

Key:
[1] = molecular target: T1, recombinant OVGP1 (buffalo oviduct-specific glycoprotein) (Bubalus bubalis, UniProt A4Z8Y1); test: intrinsic Trp fluorescence quenching (ex […] nm); assay type: binding; conditions: 10 uM protein, 5-15 mM ligand, 25 mM phosphate buffered saline, pH 7.2, 298 K
T1 construct: gene OVN; recombinant from Escherichia coli, ~58 kDa
T1 sequence (A4Z8Y1 22-540): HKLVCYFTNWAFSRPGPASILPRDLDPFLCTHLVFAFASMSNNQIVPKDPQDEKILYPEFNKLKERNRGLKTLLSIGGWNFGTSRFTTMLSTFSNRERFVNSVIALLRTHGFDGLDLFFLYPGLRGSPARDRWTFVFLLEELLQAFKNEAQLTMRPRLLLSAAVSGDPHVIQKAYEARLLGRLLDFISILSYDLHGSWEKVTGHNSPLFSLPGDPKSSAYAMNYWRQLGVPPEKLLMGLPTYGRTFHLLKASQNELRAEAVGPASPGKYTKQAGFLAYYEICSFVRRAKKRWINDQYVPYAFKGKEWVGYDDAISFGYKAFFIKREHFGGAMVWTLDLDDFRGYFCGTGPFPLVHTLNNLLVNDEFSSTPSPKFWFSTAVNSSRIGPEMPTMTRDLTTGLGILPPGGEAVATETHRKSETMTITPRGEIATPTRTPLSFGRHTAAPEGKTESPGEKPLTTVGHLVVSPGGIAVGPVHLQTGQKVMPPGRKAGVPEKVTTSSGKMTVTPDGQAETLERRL

[2] = molecular target: T2, native OVGP1 (buffalo oviduct-specific glycoprotein) (Bubalus bubalis, UniProt A4Z8Y1); test: intrinsic Trp fluorescence quenching (ex […] nm); assay type: binding; conditions: 10 uM protein, 5-15 mM ligand, 25 mM phosphate buffered saline, pH 7.2, 298 K
T2 construct: gene OVN; native, purified to homogeneity from buffalo oviducts; ~55-90 kDa; glycosylated; secreted mature form (precursor 540 aa, signal peptide 21 aa); monomer
T2 sequence (A4Z8Y1 22-540): T1 sequence (A4Z8Y1 22-540)

| SMILES | intrinsic Trp fluorescence quenching (ex 280 nm) [1] | intrinsic Trp fluorescence quenching (ex 280 nm) [2] |
| --- | --- | --- |
| CC(=O)N[C@H]1C(O)O[C@H](CO)[C@H](O)[C@@H]1O (stereo partly drawn) [GalNAc] | monosaccharides i.e. GlcNAc, GalNAc and mannose complexes of both native and recombinant OVGP1 | monosaccharides i.e. GlcNAc, GalNAc and mannose complexes of both native and recombinant OVGP1 |
| OC[C@H]1OC(O)[C@@H](O)[C@@H](O)[C@@H]1O (stereo partly drawn) [mannose] | monosaccharides i.e. GlcNAc, GalNAc and mannose complexes of both native and recombinant OVGP1 | monosaccharides i.e. GlcNAc, GalNAc and mannose complexes of both native and recombinant OVGP1 |
| CC(=O)N[C@H]1C(O)O[C@H](CO)[C@@H](O)[C@@H]1O (stereo partly drawn) [GlcNAc] | fluorescence intensity of both native and recombinant OVGP1 decreased with increasing concentrations of ligands | fluorescence intensity of both native and recombinant OVGP1 decreased with increasing concentrations of ligands |
